From patent US11572590B2, “Methods for evaluating tumor cell spheroids using 3D microfluidic cell culture device” (Dana-Farber Cancer Institute, Inc., priority 2017, dated 2023)
Where two headings read alike, the source gives them in different places.

Assays:
Assay in all cases: SelectScreen Kinase Profiling, single point inhibition and IC50 for off-target kinases
Type in all cases: biochemical
[1] = biological target: off-target kinases (Homo sapiens, UniProt P07949, V804M); conditions: RET V804M, mutant y, LanthaScreen Binding
[2] = biological target: off-target kinases (Homo sapiens, UniProt P14616); conditions: INSRR (IRR), ZLYTE, ATP Km app
[3] = biological target: off-target kinases (Homo sapiens, UniProt P15056, V600E); conditions: BRAF V599E
Chain of off-target kinases (Homo sapiens, UniProt P15056, V600E) (P15056 whole entry V600E): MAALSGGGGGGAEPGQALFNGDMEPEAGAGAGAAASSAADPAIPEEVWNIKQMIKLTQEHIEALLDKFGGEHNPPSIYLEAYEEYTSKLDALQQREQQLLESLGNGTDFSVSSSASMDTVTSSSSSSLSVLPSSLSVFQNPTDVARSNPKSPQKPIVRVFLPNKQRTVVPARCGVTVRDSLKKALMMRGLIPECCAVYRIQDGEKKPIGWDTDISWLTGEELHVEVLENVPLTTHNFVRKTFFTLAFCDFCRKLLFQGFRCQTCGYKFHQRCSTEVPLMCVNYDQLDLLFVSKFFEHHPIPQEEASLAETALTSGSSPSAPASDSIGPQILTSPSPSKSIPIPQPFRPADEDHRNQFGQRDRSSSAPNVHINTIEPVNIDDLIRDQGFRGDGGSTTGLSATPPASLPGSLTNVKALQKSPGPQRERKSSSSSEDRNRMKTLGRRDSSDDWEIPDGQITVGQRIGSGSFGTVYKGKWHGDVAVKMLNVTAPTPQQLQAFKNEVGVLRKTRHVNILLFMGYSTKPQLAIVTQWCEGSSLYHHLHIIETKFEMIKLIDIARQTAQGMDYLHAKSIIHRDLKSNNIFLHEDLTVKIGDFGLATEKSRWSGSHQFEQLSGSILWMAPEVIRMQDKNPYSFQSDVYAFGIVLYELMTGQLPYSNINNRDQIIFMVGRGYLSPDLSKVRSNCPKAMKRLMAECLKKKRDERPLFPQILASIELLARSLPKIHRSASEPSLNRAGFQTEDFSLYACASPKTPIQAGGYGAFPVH

[4] = biological target: off-target kinases (Homo sapiens, UniProt P30530); conditions: AXL, ZLYTE, ATP Km app
Chain of off-target kinases (Homo sapiens, UniProt P30530) (P30530 26-894): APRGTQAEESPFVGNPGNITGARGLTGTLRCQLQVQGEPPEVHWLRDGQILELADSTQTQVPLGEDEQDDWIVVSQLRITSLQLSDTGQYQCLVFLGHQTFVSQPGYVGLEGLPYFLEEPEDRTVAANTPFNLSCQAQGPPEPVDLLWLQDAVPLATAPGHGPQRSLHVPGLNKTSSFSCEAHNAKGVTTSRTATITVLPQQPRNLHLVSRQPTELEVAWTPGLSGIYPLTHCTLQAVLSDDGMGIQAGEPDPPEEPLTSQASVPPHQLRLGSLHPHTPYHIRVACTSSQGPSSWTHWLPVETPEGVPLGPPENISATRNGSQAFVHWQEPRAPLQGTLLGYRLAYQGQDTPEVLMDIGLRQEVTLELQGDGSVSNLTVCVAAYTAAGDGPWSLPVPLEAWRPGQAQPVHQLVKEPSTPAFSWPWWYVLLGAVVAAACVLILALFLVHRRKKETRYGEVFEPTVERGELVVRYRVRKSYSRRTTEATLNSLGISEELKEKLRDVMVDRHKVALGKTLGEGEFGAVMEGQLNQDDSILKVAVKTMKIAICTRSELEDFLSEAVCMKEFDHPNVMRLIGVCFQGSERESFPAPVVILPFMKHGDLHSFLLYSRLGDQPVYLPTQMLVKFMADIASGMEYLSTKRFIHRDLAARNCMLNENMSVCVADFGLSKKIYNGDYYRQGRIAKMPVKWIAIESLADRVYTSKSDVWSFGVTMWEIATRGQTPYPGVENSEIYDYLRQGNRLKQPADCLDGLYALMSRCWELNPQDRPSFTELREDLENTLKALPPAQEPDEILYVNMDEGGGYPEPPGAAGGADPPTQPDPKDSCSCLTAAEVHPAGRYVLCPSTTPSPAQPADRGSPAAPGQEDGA

[5] = biological target: off-target kinases (Homo sapiens, UniProt P51957); conditions: NEK4, ZLYTE, ATP Km app
Chain of off-target kinases (Homo sapiens, UniProt P51957) (P51957 whole entry): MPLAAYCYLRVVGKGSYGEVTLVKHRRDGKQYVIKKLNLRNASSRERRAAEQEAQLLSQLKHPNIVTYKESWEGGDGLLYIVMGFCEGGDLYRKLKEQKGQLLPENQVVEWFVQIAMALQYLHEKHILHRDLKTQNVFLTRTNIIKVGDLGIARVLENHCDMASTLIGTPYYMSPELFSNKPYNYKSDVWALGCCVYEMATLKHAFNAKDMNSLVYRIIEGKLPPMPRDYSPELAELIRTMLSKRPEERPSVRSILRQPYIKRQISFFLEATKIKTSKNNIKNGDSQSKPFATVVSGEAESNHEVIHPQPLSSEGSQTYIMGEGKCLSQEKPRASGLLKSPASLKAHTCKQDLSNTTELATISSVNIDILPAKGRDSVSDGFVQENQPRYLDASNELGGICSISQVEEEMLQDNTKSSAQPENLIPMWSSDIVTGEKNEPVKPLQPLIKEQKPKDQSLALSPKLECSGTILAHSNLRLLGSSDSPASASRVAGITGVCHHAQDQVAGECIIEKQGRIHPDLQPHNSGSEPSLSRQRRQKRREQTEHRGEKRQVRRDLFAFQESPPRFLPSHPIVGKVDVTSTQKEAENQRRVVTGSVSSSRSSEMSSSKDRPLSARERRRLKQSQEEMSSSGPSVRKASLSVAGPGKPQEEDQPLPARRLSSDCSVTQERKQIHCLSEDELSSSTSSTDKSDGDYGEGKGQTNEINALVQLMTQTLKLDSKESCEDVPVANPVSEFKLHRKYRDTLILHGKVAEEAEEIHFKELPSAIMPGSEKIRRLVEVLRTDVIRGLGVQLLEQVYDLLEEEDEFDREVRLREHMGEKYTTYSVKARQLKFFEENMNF

[6] = biological target: T1, off-target kinases (Homo sapiens, UniProt Q16832, N456S); conditions: DDR2 N456S, mutant y, LanthaScreen Binding
T1 sequence (Q16832 22-855 N456S): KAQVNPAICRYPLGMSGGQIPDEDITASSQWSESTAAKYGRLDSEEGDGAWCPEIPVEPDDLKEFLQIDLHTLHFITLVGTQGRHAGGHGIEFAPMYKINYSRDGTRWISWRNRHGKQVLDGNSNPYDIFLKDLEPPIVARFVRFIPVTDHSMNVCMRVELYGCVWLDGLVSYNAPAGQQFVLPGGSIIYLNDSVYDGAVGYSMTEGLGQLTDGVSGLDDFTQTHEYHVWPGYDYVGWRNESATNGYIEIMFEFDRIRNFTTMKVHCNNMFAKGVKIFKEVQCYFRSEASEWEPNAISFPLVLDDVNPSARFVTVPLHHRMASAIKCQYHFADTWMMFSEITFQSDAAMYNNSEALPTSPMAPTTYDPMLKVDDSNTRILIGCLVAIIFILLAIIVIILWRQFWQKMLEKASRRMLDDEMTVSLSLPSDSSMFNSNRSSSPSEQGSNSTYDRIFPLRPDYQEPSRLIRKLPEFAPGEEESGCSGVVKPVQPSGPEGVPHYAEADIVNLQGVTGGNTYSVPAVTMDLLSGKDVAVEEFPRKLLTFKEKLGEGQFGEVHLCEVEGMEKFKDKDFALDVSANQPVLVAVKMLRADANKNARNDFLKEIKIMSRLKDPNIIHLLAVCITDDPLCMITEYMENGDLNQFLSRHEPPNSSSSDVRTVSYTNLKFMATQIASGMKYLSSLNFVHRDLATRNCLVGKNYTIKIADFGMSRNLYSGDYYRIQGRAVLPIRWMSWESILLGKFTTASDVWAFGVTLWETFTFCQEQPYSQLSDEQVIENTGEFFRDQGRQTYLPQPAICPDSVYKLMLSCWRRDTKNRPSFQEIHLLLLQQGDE

[7] = biological target: off-target kinases (Homo sapiens, UniProt Q5S007, I2020T); conditions: LRRK2 I2020T, ATP Km app, Adapta
Chain of off-target kinases (Homo sapiens, UniProt Q5S007, I2020T) (Q5S007 whole entry I2020T): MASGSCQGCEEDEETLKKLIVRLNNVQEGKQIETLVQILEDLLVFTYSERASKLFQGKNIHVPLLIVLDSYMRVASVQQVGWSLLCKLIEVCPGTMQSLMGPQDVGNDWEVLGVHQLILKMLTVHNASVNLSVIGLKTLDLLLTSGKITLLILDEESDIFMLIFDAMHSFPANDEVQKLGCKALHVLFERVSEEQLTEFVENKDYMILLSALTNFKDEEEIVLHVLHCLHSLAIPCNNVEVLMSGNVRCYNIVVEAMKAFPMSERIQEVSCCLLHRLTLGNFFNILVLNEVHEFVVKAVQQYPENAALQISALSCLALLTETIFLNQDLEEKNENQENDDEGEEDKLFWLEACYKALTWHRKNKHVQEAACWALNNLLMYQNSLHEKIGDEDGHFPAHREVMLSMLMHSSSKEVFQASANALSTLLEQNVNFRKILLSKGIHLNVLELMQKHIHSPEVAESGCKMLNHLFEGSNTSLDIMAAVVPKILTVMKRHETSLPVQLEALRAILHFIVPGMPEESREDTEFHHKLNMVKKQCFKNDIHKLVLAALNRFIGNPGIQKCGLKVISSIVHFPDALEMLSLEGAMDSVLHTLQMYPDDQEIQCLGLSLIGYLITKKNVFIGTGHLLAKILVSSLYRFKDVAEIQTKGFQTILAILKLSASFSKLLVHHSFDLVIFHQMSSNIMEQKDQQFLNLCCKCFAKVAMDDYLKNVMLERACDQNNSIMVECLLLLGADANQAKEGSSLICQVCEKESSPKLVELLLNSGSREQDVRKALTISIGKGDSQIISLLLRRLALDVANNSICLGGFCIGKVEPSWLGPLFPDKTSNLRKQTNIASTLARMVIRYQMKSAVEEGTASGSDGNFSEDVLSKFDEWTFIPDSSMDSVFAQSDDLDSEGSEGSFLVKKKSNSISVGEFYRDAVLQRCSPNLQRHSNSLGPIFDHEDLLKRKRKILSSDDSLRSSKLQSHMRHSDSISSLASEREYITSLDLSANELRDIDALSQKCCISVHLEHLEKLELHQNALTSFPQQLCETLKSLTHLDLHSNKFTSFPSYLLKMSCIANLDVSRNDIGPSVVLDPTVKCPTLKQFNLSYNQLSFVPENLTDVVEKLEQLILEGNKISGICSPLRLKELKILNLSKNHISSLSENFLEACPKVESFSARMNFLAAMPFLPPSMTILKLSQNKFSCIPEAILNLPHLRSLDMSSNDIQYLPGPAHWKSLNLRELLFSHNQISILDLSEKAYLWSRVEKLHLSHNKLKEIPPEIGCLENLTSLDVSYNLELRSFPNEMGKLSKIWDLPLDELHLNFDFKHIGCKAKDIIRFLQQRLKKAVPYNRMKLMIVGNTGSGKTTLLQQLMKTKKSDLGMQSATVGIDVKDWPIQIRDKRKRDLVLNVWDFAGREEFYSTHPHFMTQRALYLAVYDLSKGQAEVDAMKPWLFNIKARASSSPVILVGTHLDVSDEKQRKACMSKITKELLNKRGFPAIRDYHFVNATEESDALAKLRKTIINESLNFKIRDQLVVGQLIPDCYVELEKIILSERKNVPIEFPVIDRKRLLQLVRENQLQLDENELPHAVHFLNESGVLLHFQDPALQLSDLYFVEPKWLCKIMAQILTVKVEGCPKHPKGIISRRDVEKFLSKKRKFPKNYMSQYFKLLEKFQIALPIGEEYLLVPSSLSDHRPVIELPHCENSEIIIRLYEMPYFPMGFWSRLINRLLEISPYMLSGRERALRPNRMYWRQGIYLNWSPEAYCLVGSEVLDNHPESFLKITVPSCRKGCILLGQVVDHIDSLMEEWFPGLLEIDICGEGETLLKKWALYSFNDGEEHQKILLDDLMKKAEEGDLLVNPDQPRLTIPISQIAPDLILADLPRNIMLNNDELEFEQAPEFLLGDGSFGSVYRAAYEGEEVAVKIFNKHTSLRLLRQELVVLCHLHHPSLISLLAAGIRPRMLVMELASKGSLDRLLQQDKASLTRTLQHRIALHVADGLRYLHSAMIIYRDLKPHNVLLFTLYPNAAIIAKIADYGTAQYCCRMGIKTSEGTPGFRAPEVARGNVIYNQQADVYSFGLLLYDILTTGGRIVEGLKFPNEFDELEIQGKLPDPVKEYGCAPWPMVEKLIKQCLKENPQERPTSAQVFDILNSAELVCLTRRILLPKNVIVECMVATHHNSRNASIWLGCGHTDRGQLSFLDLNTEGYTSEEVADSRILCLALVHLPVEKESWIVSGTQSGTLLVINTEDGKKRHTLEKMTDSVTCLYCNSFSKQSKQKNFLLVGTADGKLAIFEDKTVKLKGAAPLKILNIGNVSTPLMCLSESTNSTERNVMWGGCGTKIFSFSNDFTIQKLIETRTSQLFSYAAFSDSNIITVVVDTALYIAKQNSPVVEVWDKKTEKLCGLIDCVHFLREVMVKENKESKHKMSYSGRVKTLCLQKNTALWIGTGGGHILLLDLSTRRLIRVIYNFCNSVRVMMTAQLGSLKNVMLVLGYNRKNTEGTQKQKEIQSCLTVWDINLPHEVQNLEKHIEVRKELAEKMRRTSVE

## N#Cc1cc(-c2ncnc(Nc3ccc(N4CCN(C5COC5)CC4)cc3)n2)ccc1OC1CCOCC1 [Compound 1, 5-(4-((4-(4-(oxetan-3-yl)piperazin-1-yl)phenyl)amino)-1,3,5-triazin-2-yl)-2-((tetrahydro-2H-pyran-4-yl)oxy)benzonitrile]
[1]; read-out: % Inhibition 1
  inhibition: 35%
[1]; read-out: % Inhibition 2
  inhibition: 31%
[1]; read-out: % Inhibition Avg
  inhibition: 33%
[2]; read-out: % Inhibition 1
  inhibition: 5%
[2]; read-out: % Inhibition 2
  inhibition: 4%
[2]; read-out: % Inhibition Avg
  inhibition: 4%
[3]; ATP 100, ZLYTE, read-out: % Inhibition 1
  inhibition: 63%
[3]; ATP 100, ZLYTE, read-out: % Inhibition 2
  inhibition: 61%
[3]; ATP 100, ZLYTE, read-out: % Inhibition Avg
  inhibition: 62%
[3]; LanthaScreen Binding, read-out: % Inhibition 1
  inhibition: 50%
[3]; LanthaScreen Binding, read-out: % Inhibition 2
  inhibition: 53%
[3]; LanthaScreen Binding, read-out: % Inhibition Avg
  inhibition: 52%
[4]; read-out: % Inhibition 1
  inhibition: 22%
[4]; read-out: % Inhibition 2
  inhibition: 25%
[4]; read-out: % Inhibition Avg
  inhibition: 24%
[5]; read-out: % Inhibition 1
  inhibition: 23%
[5]; read-out: % Inhibition 2
  inhibition: 23%
[5]; read-out: % Inhibition Avg
  inhibition: 23%
[6]; read-out: % Inhibition 1
  inhibition: 33%
[6]; read-out: % Inhibition 2
  inhibition: 42%
[6]; read-out: % Inhibition Avg
  inhibition: 37%
[7]; read-out: % Inhibition 1
  inhibition: 100%
[7]; read-out: % Inhibition 2
  inhibition: 98%
[7]; read-out: % Inhibition Avg
  inhibition: 99%
